The values that follow come from patent US12077503B2, “Substituted cyclic amides and their use as herbicides” (FMC CORPORATION, priority 2015, dated 2024).

Test in all cases: Test A postemergence
What all share (assay type): in vivo

Experiment [1] deals with Galium (catchweed bedstraw, Galium aparine). Conditions: Galium, post-emergence, 240 h; for pest or weed control at 125 g/ha: 125 g ai/ha; for pest or weed control at 500 g/ha: 500 g ai/ha. The method, boiled down:
(§1)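 Ratings of 0 (no effect) to 100 (complete control) come from visual comparison with untreated controls roughly 10 d after treatment. Test chemicals, formulated in a non-phytotoxic solvent mixture with surfactant, were applied either as a preemergence directed soil spray on seeded soil or postemergence to one- to two-leaf plants 2 to 10 cm tall.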

For experiment [2], the system named is ragweed (common ragweed, Ambrosia elatior). As to conditions: Ambrosia artemisiifolia, post-emergence, 240 h; for pest or weed control at 125 g/ha: 125 g ai/ha; for pest or weed control at 500 g/ha: 500 g ai/ha. The method, boiled down:
as §1

The subject of the next experiment is Kochia (Kochia scoparia). As to conditions: Bassia scoparia, post-emergence, 240 h; for pest or weed control at 125 g/ha: 125 g ai/ha; for pest or weed control at 500 g/ha: 500 g ai/ha. The method, boiled down:
as §1

In experiment [3] the test system is blackgrass (Alopecurus myosuroides). As to conditions: Alopecurus myosuroides, post-emergence, 240 h; for pest or weed control at 125 g/ha: 125 g ai/ha; for pest or weed control at 500 g/ha: 500 g ai/ha. The method, boiled down: as §1
For the next experiment, the system named is corn (Zea mays). Conditions: Zea mays, post-emergence, 240 h; for plant injury at 125 g/ha: read-out: Corn plant response rating (0 to 100 scale); for plant injury at 500 g/ha / Corn plant response rating (crop injury, 0 = no effect, 100 = complete kill) at 500 g/ha: 500 g ai/ha; for plant injury at 500 g/ha: 0 to 100 scale, 0 is no effect, 100 is complete control, read-out: Corn plant response rating; for Corn plant response rating (crop injury, 0 = no effect, 100 = complete kill) at 500 g/ha: visual injury, approx. 10 d. The method, boiled down: as §1

The subject of experiment [4] is wheat (Triticum aestivum). Conditions: Triticum aestivum, post-emergence, 240 h; for plant injury at 125 g/ha: 125 g ai/ha; for plant injury at 500 g/ha: 500 g ai/ha. The method, boiled down: as §1
Where [5] appears, read: postemergence, visual injury vs untreated controls after approx. 10 d, 0 = no effect, 100 = complete control, read-out: Galium plant response rating (0 to 100 scale).
Setting [6] is: postemergence, 0 to 100 scale, 0 is no effect, 100 is complete control, read-out: Galium plant response rating.
Where [7] appears, read: postemergence, visual injury vs untreated controls after approx. 10 d, 0 = no effect, 100 = complete control, read-out: Ragweed plant response rating (0 to 100 scale).
The mark [8] stands for this setting: postemergence, 0 to 100 scale, 0 is no effect, 100 is complete control, read-out: Ragweed plant response rating.
The mark [9] stands for this setting: postemergence, visual injury vs untreated controls after approx. 10 d, 0 = no effect, 100 = complete control, read-out: Kochia plant response rating (0 to 100 scale).
Where [10] appears, read: postemergence, 0 to 100 scale, 0 is no effect, 100 is complete control, read-out: Kochia plant response rating.
Setting [11] is: postemergence, visual injury vs untreated controls after approx. 10 d, 0 = no effect, 100 = complete control, read-out: Blackgrass plant response rating (0 to 100 scale).
Setting [12] is: postemergence, 0 to 100 scale, 0 is no effect, 100 is complete control, read-out: Blackgrass plant response rating.
[13] abbreviates: 125 g ai/ha, postemergence, visual injury vs untreated controls after approx. 10 d, 0 = no effect, 100 = complete control.
Setting [14] is: postemergence, visual injury vs untreated controls after approx. 10 d, 0 = no effect, 100 = complete control, read-out: Wheat plant response rating (0 to 100 scale).
[15] abbreviates: postemergence, 0 to 100 scale, 0 is no effect, 100 is complete control, read-out: Wheat plant response rating.
[16] abbreviates: Postemergence, visual injury, 0 to 100 scale (0 no effect, 100 complete control), approx. 10 d, read-out: Plant response rating, Galium.
The mark [17] stands for this setting: Postemergence, visual injury, 0 to 100 scale (0 no effect, 100 complete control), approx. 10 d, read-out: Plant response rating, Ragweed.
The mark [18] stands for this setting: Postemergence, visual injury, 0 to 100 scale (0 no effect, 100 complete control), approx. 10 d, read-out: Plant response rating, Kochia.
The mark [19] stands for this setting: Postemergence, visual injury, 0 to 100 scale (0 no effect, 100 complete control), approx. 10 d, read-out: Plant response rating, Blackgrass.
Setting [20] is: Postemergence, 0 to 100 scale (0 no effect, 100 complete control).
Where [21] appears, read: Postemergence, visual injury, 0 to 100 scale (0 no effect, 100 complete control), approx. 10 d, read-out: Plant response rating, Wheat.
[22] abbreviates: Postemergence, visual rating about 10 d after treatment, read-out: Galium plant response rating (0 to 100 scale).
The mark [23] stands for this setting: Postemergence, visual rating about 10 d after treatment, read-out: Ragweed plant response rating (0 to 100 scale).
Where [24] appears, read: Postemergence, visual rating about 10 d after treatment, read-out: Kochia plant response rating (0 to 100 scale).
Where [25] appears, read: Postemergence, visual rating about 10 d after treatment, read-out: Blackgrass plant response rating (0 to 100 scale).
[26] abbreviates: 125 g ai/ha, Postemergence, visual rating about 10 d after treatment.
The mark [27] stands for this setting: Postemergence, visual rating about 10 d after treatment, read-out: Wheat plant response rating (0 to 100 scale).

Like-named read-outs stand apart in the source and are kept apart here.

Turning to `COc1cc([C@H]2CN(C)C(=O)[C@@H]2C(=O)Nc2ccccc2F)cc(OC)c1OC` [Compound 1217], the pest or weed control at 125 g/ha (in experiment [1] (setting [5]); in experiment [2] (setting [7]); in the experiment on Kochia (Kochia scoparia) (setting [9]); in experiment [3] (setting [11])) was 0% in each case. For the same compound, the pest or weed control at 500 g/ha (in experiment [1] (setting [6]); in experiment [2] (setting [8]); with Kochia (Kochia scoparia) (setting [10]); in experiment [3] (setting [12])) was 0% in each case. The plant injury at 125 g/ha (in the experiment on corn (Zea mays) (setting [13]); in experiment [4] (setting [14])) was 0% each time. Moreover, the plant injury at 500 g/ha (in the experiment on corn (Zea mays) (postemergence); in experiment [4] (setting [15])) was 0% each time.
`Cc1c(F)cccc1NC(=O)[C@H]1C(=O)N(C)C[C@@H]1c1ccc2c(c1)OC(F)(F)O2` [Compound 1252]: the pest or weed control at 125 g/ha is 50% in experiment [1] (setting [5]), 0% in experiment [2] (setting [7]), 20% with Kochia (Kochia scoparia) (setting [9]) and 50% in experiment [3] (setting [11]). In addition, the pest or weed control at 500 g/ha in experiment [1] (setting [16]) was found to be 60%; in experiment [2] (setting [17]) it was 50%; in the experiment with Kochia (Kochia scoparia) (setting [18]) it was 60%; in experiment [3] (setting [19]) it was 50%. Moreover, the plant injury at 125 g/ha turned out to be 80% in the experiment on corn (Zea mays) (setting [13]) and 70% in experiment [4] (setting [14]). The Corn plant response rating (crop injury, 0 = no effect, 100 = complete kill) at 500 g/ha in the experiment on corn (Zea mays) (setting [20]) turned out to be 90%. Besides, the plant injury at 500 g/ha in experiment [4] (setting [21]) was determined as 70%.
With `Cc1c(F)cccc1NC(=O)[C@H]1C(=O)N(C)C[C@@H]1c1ccc(OC(F)F)cc1` [Compound 1213], the pest or weed control at 125 g/ha in experiment [1] (setting [5]) was determined as 50%; in experiment [2] (setting [7]), 0%; in the experiment on Kochia (Kochia scoparia) (setting [9]), 50%; in experiment [3] (setting [11]), 20%. The pest or weed control at 500 g/ha in experiment [1] (setting [6]) was 60%; in experiment [2] (setting [8]), 0%; with Kochia (Kochia scoparia) (setting [10]) it was 60%; in experiment [3] (setting [12]), 40%. Moreover, the plant injury at 125 g/ha in the experiment on corn (Zea mays) (setting [13]) was 50%; in experiment [4] (setting [14]), 40%. Further, the plant injury at 500 g/ha worked out at 80% in the experiment on corn (Zea mays) (postemergence) and 50% in experiment [4] (setting [15]).
`Cc1cc([C@H]2CN(C)C(=O)[C@@H]2C(=O)Nc2cccc(F)c2C)ccc1F` [Compound 1311]: the pest or weed control at 125 g/ha was 50% in experiment [1] (setting [22]), 0% in experiment [2] (setting [23]), 30% in the experiment with Kochia (Kochia scoparia) (setting [24]) and 60% in experiment [3] (setting [25]). In addition, the pest or weed control at 500 g/ha in experiment [1] (setting [16]) was determined as 60%; in experiment [2] (setting [17]) it was 30%; in the experiment on Kochia (Kochia scoparia) (setting [18]) it was 50%; in experiment [3] (setting [19]), 60%. Also, the plant injury at 125 g/ha in the experiment with corn (Zea mays) (setting [26]) came out at 70%; in experiment [4] (setting [27]), 60%. In the experiment on corn (Zea mays) (setting [20]), this compound displayed a Corn plant response rating (crop injury, 0 = no effect, 100 = complete kill) at 500 g/ha of 80%. Further, the plant injury at 500 g/ha in experiment [4] (setting [21]) is 80%.
With `Cc1c(F)ccc([C@H]2CNC(=O)[C@@H]2C(=O)Nc2cccc(F)c2F)c1F` [Compound 1327], the pest or weed control at 125 g/ha was determined as 30% in experiment [1] (setting [22]), 0% in experiment [2] (setting [23]), 0% with Kochia (Kochia scoparia) (setting [24]) and 0% in experiment [3] (setting [25]). Besides, the pest or weed control at 500 g/ha came out at 50% in experiment [1] (setting [16]), 20% in experiment [2] (setting [17]), 30% with Kochia (Kochia scoparia) (setting [18]) and 20% in experiment [3] (setting [19]). Further, the plant injury at 125 g/ha (in the experiment with corn (Zea mays) (setting [26]); in experiment [4] (setting [27])) was 0% each time. Besides, in the experiment on corn (Zea mays) (setting [20]), the Corn plant response rating (crop injury, 0 = no effect, 100 = complete kill) at 500 g/ha was found to be 0%. Besides, the plant injury at 500 g/ha in experiment [4] (setting [21]) is 0%.
As to `CSc1ccccc1NC(=O)[C@H]1C(=O)N(C)C[C@@H]1c1ccc(C)c(C)c1` [Compound 733], the pest or weed control at 125 g/ha in experiment [1] (postemergence, visual injury after approximately 10 d, 0 to 100 scale (0 no effect, 100 complete control), read-out: Plant response rating, Galium) worked out at 20%; in experiment [2] (postemergence, visual injury after approximately 10 d, 0 to 100 scale (0 no effect, 100 complete control), read-out: Plant response rating, Ragweed), 0%; in the experiment on Kochia (Kochia scoparia) (postemergence, visual injury after approximately 10 d, 0 to 100 scale (0 no effect, 100 complete control), read-out: Plant response rating, Kochia), 0%; in experiment [3] (postemergence, visual injury after approximately 10 d, 0 to 100 scale (0 no effect, 100 complete control), read-out: Plant response rating, Blackgrass), 0%. This compound gave a Corn plant response rating (crop injury, 0 = no effect, 100 = complete kill) at 125 g/ha with corn (Zea mays) (125 g ai/ha, postemergence, visual injury after approximately 10 d, 0 to 100 scale (0 no effect, 100 complete control)) of 0%. The plant injury at 125 g/ha in experiment [4] (postemergence, visual injury after approximately 10 d, 0 to 100 scale (0 no effect, 100 complete control), read-out: Plant response rating, Wheat) was determined as 20%.
Regarding `CN1C[C@H](c2ccc(F)c(Br)c2)[C@@H](C(=O)Nc2cccc(F)c2F)C1=O` [Compound 1234], the pest or weed control at 125 g/ha in experiment [1] (setting [5]) is 50%; in experiment [2] (setting [7]), 30%; in the experiment with Kochia (Kochia scoparia) (setting [9]), 40%; in experiment [3] (setting [11]), 30%. Besides, the pest or weed control at 500 g/ha in experiment [1] (setting [6]) is 60%; in experiment [2] (setting [8]), 30%; in the experiment with Kochia (Kochia scoparia) (setting [10]) it was 50%; in experiment [3] (setting [12]) it was 60%. In addition, the plant injury at 125 g/ha in the experiment with corn (Zea mays) (setting [13]) is 80%; in experiment [4] (setting [14]), 40%. The plant injury at 500 g/ha in the experiment on corn (Zea mays) (postemergence) stood at 100%.
`CN1C[C@H](c2cccc(C(C)(F)F)c2)[C@@H](C(=O)Nc2cccc(F)c2F)C1=O` [Compound 1316]: the pest or weed control at 125 g/ha in experiment [1] (setting [22]) is 60%; in experiment [2] (setting [23]) it was 30%; in the experiment with Kochia (Kochia scoparia) (setting [24]), 30%; in experiment [3] (setting [25]) it was 70%. Further, the pest or weed control at 500 g/ha was 60% in experiment [1] (setting [16]), 70% in experiment [2] (setting [17]), 40% with Kochia (Kochia scoparia) (setting [18]) and 80% in experiment [3] (setting [19]). The plant injury at 125 g/ha with corn (Zea mays) (setting [26]) turned out to be 80%; in experiment [4] (setting [27]) it was 60%. The compound further displayed a Corn plant response rating (crop injury, 0 = no effect, 100 = complete kill) at 500 g/ha in the experiment on corn (Zea mays) (setting [20]) of 80%. Also, the plant injury at 500 g/ha in experiment [4] (setting [21]) is 80%.
